Data published in patent publication US20050107289A1, “Anti-microbial peptides and compositions” (priority 2001, published 2005).
Counter-ions that a name gives are not always drawn. Like-named read-outs stand apart in the source and are kept apart here. Non-standard residues stand in square brackets, D forms with d. Residues, ends and D or L forms follow the SMILES beside them.

Key:
[1] = system: S. aureus (MRSA) ATCC 33591; format: cell-based, Staphylococcus aureus; conditions: Table 9
Description: (§1) The antimicrobial activity of the peptides was determined using a broth dilution assay essentially as descried in the guidelines of the National Committee for […] (NCCLS) [National Committee for Clinical Laboratory Standards. Methods for dilution antimicrobial susceptibility tests for bacteria that grow aerobically. Fourth edition. Approved Standard (1997). Document M7-A4. […] The microdilution method has the advantages of requiring less amount of peptide for each assay and the possibility of multiple simultaneous inoculations and was used in most studies. Several of the strains of bacteria tested are further described in Table 3.
(§2) Preparation of peptide solutions. Stock peptide solutions were prepared in 5% DMSO in aq. sucrose (9%). Determination of peptide concentrations was done by quantitative HPLC analysis using known concentrations of internal standards and/or by measuring UV absorption of tryptophane-containing peptide solutions in H2O (λ=280 εTrp: 5690). Serial 2-fold dilutions were made in the above DMSO/aq. sucrose (9%) mixture with concentrations ranging approximately 400-2 μg/ml and aliquots were dispensed in test tubes (100 μl) for the macrodilution test or in microtiter plates (20 μl) for the microdilution assays.
(§3) Inoculum preparation. Overnight cultures of different microorganisms grown in suitable media were diluted 4000 times to an approximate inoculum size of 2.5×10^5 cfu/ml.
(§4) Macrodilution method. Macrodilution methods were performed using procedures similar to those described in the National Committee for Clinical Laboratory Standards. Methods for dilution antimicrobial susceptibility tests for bacteria that grow aerobically. Fourth edition. Approved Standard (1997). Document M7-A4. (NCCLS,Villanova, Pa., 1997). Two ml aliquots of the above inoculum were dispensed to test tubes containing different peptide solutions.
(§5) Microdilution method. Microdilution methods were performed using procedures similar to those described in the National Committee for Clinical Laboratory Standards. Methods for dilution antimicrobial susceptibility tests for bacteria that grow aerobically. Fourth edition. Approved Standard (1997). Document M7-A4.

murine red blood cells = experiment: Red blood cell hemolysis; format: cell-based, mouse
Description: Selectivity of cyclic peptides for bacterial over mammalian cells was evaluated by measuring red blood cell hemolytic activities as described in Tosteson, M. T. Holmes, S. J., Razin, M. and Tosteson, D. C. Melittin Lysis of Red Cells, J. Membrane Biol. 87, 35-44(1985). Heparinized murine blood was centrifuged at 1000×g for 10 minutes. The supernatant and the buffy coat were removed. Erythrocytes were washed three times with 0.9% saline solution and then resuspended to a concentration of 5% in saline containing 10% FBS (v/v). Red blood cells were then treated with serial dilutions of test peptides in a 96 well plate at 37° C. for 30 minutes. Control samples included a saline solution arid 1% Triton X-100 as 0 and 100% hemolysis, respectively. In some cases, mellitin was used as a further control. Mellitin is a linear peptide that is hemolytic against mammalian red blood cells in vitro at a concentration of about 10 μg/ml. Plates were centrifuged at 1000 g for 10 minutes. Aliquots of the supernatant were diluted 2 times with saline solution and the absorbance was measured at 560 nm.

[2] = system: vancomycin-resistant Enterococus faecalis (VRE)(ATCC 51575); format: cell-based, Enterococcus faecalis; set-up: key to VRE (in vitro activity): peptide concentration in μg/ml (broth dilution assay); conditions: Table 9
Description: as §1, §2, §3, §4, §5

[3] = media b: cation adjusted Meuller Hinton broth (MHBII)
[4] = media c: Brain Heart Infusion (BHI)
[5] = media a: anti-microbial media-3 (AM-3)

Structure (SMILES)	MRSA (in vitro activity) [1, 3]	RBC Hemolysis (HD50) (murine red blood cells)	VRE (in vitro activity) [2, 4]	MRSA (in vitro activity) [1, 5]	VRE (in vitro activity) ([2]; media a: AM-3)	VRE (in vitro activity) ([2]; media b: MHBII)	MRSA (in vitro activity) ([1]; media b: cation adjusted Meuller Hinton broth (MHBII), listed as [KSKLILIL] (57))
C[C@H](O)[C@H]1NC(=O)[C@H](CCCNC(=N)N)NC(=O)[C@@H](CO)NC(=O)[C@H](CCC(N)=O)NC(=O)[C@@H](Cc2c[nH]cn2)NC(=O)[C@H](CCCCN)NC1=O [SEQ ID NO:130, [KHQSRT]] (cyclo(K[dH]Q[dS]R[dT]))	>200	>200	>200	–	–	–	–
CC(C)C[C@@H]1NC(=O)[C@@H](Cc2c[nH]c3ccccc23)NC(=O)[C@H](CCCCN)NC(=O)[C@@H](CCCCN)NC(=O)[C@H](CCCCN)NC(=O)[C@@H](Cc2c[nH]c3ccccc23)NC1=O [SEQ ID NO:121, [KKKWLW]] (cyclo(K[dK]K[dW]L[dW]))	–	>111	–	23	51	–	–
CC(C)C[C@@H]1NC(=O)[C@@H](Cc2c[nH]c3ccccc23)NC(=O)[C@H](C(C)C)NC(=O)[C@@H](CCCNC(=N)N)NC(=O)[C@H](CCC(N)=O)NC(=O)[C@@H](CCCNC(=N)N)NC(=O)[C@H](Cc2c[nH]c3ccccc23)NC(=O)[C@@H](Cc2c[nH]c3ccccc23)NC1=O [SEQ ID NO:70, [QRVWLWWR]] (cyclo(Q[dR]V[dW]L[dW]W[dR]))	12.5	30	–	–	–	6.3	–
NCCCC[C@@H]1NC(=O)[C@@H](Cc2ccccc2)NC(=O)[C@H](Cc2c[nH]c3ccccc23)NC(=O)[C@@H](Cc2ccccc2)NC(=O)[C@H](CCCCN)NC(=O)[C@@H](CC(N)=O)NC(=O)[C@H](CCC(N)=O)NC(=O)[C@@H](CC(N)=O)NC1=O [SEQ ID NO:89, [KNQNKFWF]] (cyclo(K[dN]Q[dN]K[dF]W[dF]))	17	280	70	–	–	–	–
CC(C)C[C@@H]1NC(=O)[C@@H](Cc2c[nH]c3ccccc23)NC(=O)[C@H](CCCCN)NC(=O)[C@@H](Cc2c[nH]cn2)NC(=O)[C@H](CO)NC(=O)[C@@H](Cc2c[nH]cn2)NC(=O)[C@H](CCCCN)NC(=O)[C@@H](Cc2c[nH]c3ccccc23)NC1=O [SEQ ID NO:88, [KHSHKWLW]] (cyclo([dW]L[dW]K[dH]S[dH]K))	6	200	6	–	–	–	–
CC(C)C[C@H]1NC(=O)[C@H](Cc2c[nH]c3ccccc23)NC(=O)[C@@H](CO)NC(=O)[C@H](CCCCN)NC(=O)[C@@H](Cc2ccccc2)NC(=O)[C@H](Cc2c[nH]c3ccccc23)NC(=O)[C@@H](CC(C)C)NC(=O)[C@H](Cc2c[nH]c3ccccc23)NC1=O [SEQ ID NO:42, [KSWLWLWF]] (cyclo(K[dS]W[dL]W[dL]W[dF]))	–	>26	–	>26	>26	–	–
CC[C@H](C)[C@@H]1NC(=O)[C@@H](CC(C)C)NC(=O)[C@H](CCCCN)NC(=O)[C@@H](CO)NC(=O)[C@H](CCCCN)NC(=O)[C@@H](CC(C)C)NC(=O)[C@H]([C@@H](C)CC)NC(=O)[C@@H](CC(C)C)NC1=O [SEQ ID NO:57, [KSKLILIL]] (cyclo(I[dL]I[dL]K[dS]K[dL]))	–	>200	>200	–	–	–	200
CC(C)C[C@@H]1NC(=O)[C@@H](Cc2c[nH]c3ccccc23)NC(=O)[C@H](CO)NC(=O)[C@@H](Cc2c[nH]c3ccccc23)NC(=O)[C@H](CCCCN)NC(=O)[C@@H](Cc2c[nH]c3ccccc23)NC(=O)[C@H](CCCCN)NC(=O)[C@@H](Cc2c[nH]c3ccccc23)NC1=O [SEQ ID NO:107, [KWKWSWLW]] (cyclo(K[dW]K[dW]S[dW]L[dW]))	12	150	12	–	–	–	–
CC(C)C[C@@H]1NC(=O)[C@@H](Cc2c[nH]c3ccccc23)NC(=O)[C@H](Cc2c[nH]c3ccccc23)NC(=O)[C@@H](CCCNC(=N)N)NC(=O)[C@H](CCC(N)=O)NC(=O)[C@@H](CCCNC(=N)N)NC(=O)[C@H](Cc2c[nH]c3ccccc23)NC(=O)[C@@H](Cc2c[nH]c3ccccc23)NC1=O [SEQ ID NO:71, [QRWWLWWR]] (cyclo(Q[dR]W[dW]L[dW]W[dR]))	6.3	35	–	–	–	6.3	–
CC(C)C[C@H]1NC(=O)[C@H](Cc2c[nH]c3ccccc23)NC(=O)[C@@H](Cc2c[nH]c3ccccc23)NC(=O)[C@H](CCCCN)NC(=O)[C@@H](Cc2c[nH]c3ccccc23)NC(=O)[C@H](CCCCN)NC(=O)[C@@H](CC(C)C)NC(=O)[C@H](Cc2c[nH]c3ccccc23)NC1=O [SEQ ID NO:44, [KWWLWLKW]] (cyclo(K[dW]W[dL]W[dL]K[dW]))	–	>58	–	4	4	–	–
CC(C)C[C@@H]1NC(=O)[C@@H](Cc2ccccc2)NC(=O)[C@H](CCCCN)NC(=O)[C@@H](CCCCN)NC(=O)[C@H](CCCCN)NC(=O)[C@@H](Cc2ccccc2)NC(=O)[C@H](CC(C)C)NC(=O)[C@@H](Cc2ccccc2)NC1=O [SEQ ID NO:51, [KKKFLFLF]] (cyclo(K[dK]K[dF]L[dF]L[dF]))	18	>300	75	–	–	–	–
CC(C)C[C@@H]1NC(=O)[C@@H](Cc2c[nH]c3ccccc23)NC(=O)[C@H](CCCCN)NC(=O)[C@@H](CCC(=O)O)NC(=O)[C@H](CCCCN)NC(=O)[C@@H](Cc2c[nH]c3ccccc23)NC1=O [SEQ ID NO:117, [KEKWLW]] (cyclo(K[dE]K[dW]L[dW]))	–	>121	–	101	91	–	–
CC(C)C[C@H]1NC(=O)[C@H](Cc2c[nH]c3ccccc23)NC(=O)[C@@H](CCCCN)NC(=O)[C@H](CCCCN)NC(=O)[C@@H](CCCCN)NC(=O)[C@H](Cc2c[nH]c3ccccc23)NC(=O)[C@@H](CC(C)C)NC(=O)[C@H](Cc2c[nH]c3ccccc23)NC1=O [[KKKWLWLW-HCl] (17), cyclo[-(D-Lys-Lys-D-Lys-(Trp-D-Leu)2-Trp-]] (cyclo([dK]K[dK]W[dL]W[dL]W))	6	75	6	–	–	–	–
CC(C)C[C@@H]1NC(=O)[C@@H](Cc2c[nH]c3ccccc23)NC(=O)[C@H](CCCCN)NC(=O)[C@@H](Cc2c[nH]cn2)NC(=O)[C@H](CCCCN)NC(=O)[C@@H](Cc2c[nH]c3ccccc23)NC1=O [SEQ ID NO:119, [KHKWLW]] (cyclo(K[dH]K[dW]L[dW]))	–	>115	–	12	60	–	–
CC(C)C[C@H]1NC(=O)[C@H](Cc2c[nH]c3ccccc23)NC(=O)[C@@H](Cc2c[nH]c3ccccc23)NC(=O)[C@H](CCCCN)NC(=O)[C@@H](CO)NC(=O)[C@H](CCCCN)NC(=O)[C@@H](CC(C)C)NC(=O)[C@H](Cc2c[nH]c3ccccc23)NC1=O [SEQ ID NO:67, [KWWLWLKS]] (cyclo(K[dW]W[dL]W[dL]K[dS]))	7	>153	–	–	–	10	–
CC(C)C[C@H]1NC(=O)[C@H](Cc2ccccc2)NC(=O)[C@@H](Cc2c[nH]cn2)NC(=O)[C@H](CCCCN)NC(=O)[C@@H](Cc2c[nH]cn2)NC(=O)[C@H](CCCCN)NC(=O)[C@@H](CC(C)C)NC(=O)[C@H](Cc2c[nH]c3ccccc23)NC1=O [SEQ ID NO:72, [KHKHFLWL]] (cyclo(K[dH]K[dH]F[dL]W[dL]))	8	200	16	–	–	–	–
CC(C)C[C@@H]1NC(=O)[C@@H](Cc2c[nH]c3ccccc23)NC(=O)[C@H](CCCCN)NC(=O)[C@@H](CO)NC(=O)[C@H](CCCCN)NC(=O)[C@@H](CO)NC(=O)[C@H](CCCCN)NC(=O)[C@@H](Cc2c[nH]c3ccccc23)NC1=O [SEQ ID NO:91, [KSKSKWLW]] (cyclo(K[dS]K[dS]K[dW]L[dW]))	6	200	12	–	–	–	–
